Laboratory results: PubChem BioAssay (NCI)
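Dose response: 5 concentrations. Exposure: 48 h. Format: 96-well plates. Endpoint: linear interpolation; highest concentration if not reached. GI50 = concentration required for 50% inhibition of growth. TGI marks complete inhibition of growth.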

Key:
Experiment in all cases: DTP human tumour cell line panel, 48 h
A498 renal = tested on: A498 renal
OVCAR-5 ovarian = tested on: OVCAR-5 ovarian
MDA-MB-435 = tested on: MDA-MB-435
HOP-92 NSCLC = tested on: HOP-92 NSCLC
A549 NSCLC = tested on: A549 NSCLC
COLO 205 colon = tested on: COLO 205 colon
HCC-2998 colon = tested on: HCC-2998 colon
MALME-3M melanoma = tested on: MALME-3M melanoma
SK-MEL-28 melanoma = tested on: SK-MEL-28 melanoma
M19-MEL melanoma = tested on: M19-MEL melanoma
DLD-1 colon = tested on: DLD-1 colon

Work on `CC(=O)[C@H]1CC[C@H]2[C@@H]3CCC4=CC(=O)CC[C@]4(C)[C@H]3CC[C@]12C` yielded a TGI (A498 renal) of 67.1 µM, a TGI (OVCAR-5 ovarian) of 50.9 µM and a TGI (MDA-MB-435) of 39.3 µM. It also gave a TGI (HOP-92 NSCLC) of 71.3 µM, a TGI (A549 NSCLC) of 88.5 µM and a TGI (COLO 205 colon) of 29.5 µM. It also gave a TGI (HCC-2998 colon) of 31.4 µM, a TGI (MALME-3M melanoma) of 35.8 µM and a TGI (SK-MEL-28 melanoma) of 37.7 µM.
With `NC(Cc1ccccc1)=NCC(=O)O` the TGI (A498 renal) was greater than 100 µM, the TGI (OVCAR-5 ovarian) was greater than 100 µM and the TGI (MDA-MB-435) was greater than 100 µM. It also gave a TGI (HOP-92 NSCLC) greater than 100 µM, a TGI (A549 NSCLC) greater than 100 µM and a TGI (COLO 205 colon) greater than 100 µM. It also gave a TGI (HCC-2998 colon) greater than 100 µM, a TGI (MALME-3M melanoma) greater than 100 µM and a TGI (SK-MEL-28 melanoma) greater than 100 µM.
With `O=C(O)CS(=O)c1ccc2c3c(cccc13)C(=O)c1ccccc1-2` (stereo unspecified) the TGI (A498 renal) was greater than 100 µM, the TGI (OVCAR-5 ovarian) was greater than 100 µM and the TGI (MDA-MB-435) was greater than 100 µM. The TGI (HOP-92 NSCLC) was greater than 100 µM, the TGI (A549 NSCLC) was greater than 100 µM and the TGI (COLO 205 colon) was greater than 100 µM. For the same molecule, the TGI (HCC-2998 colon) was greater than 100 µM, the TGI (MALME-3M melanoma) was greater than 100 µM and the TGI (SK-MEL-28 melanoma) was greater than 100 µM.
In the case of `Cc1ccc2ccc(=O)oc2c1`, the TGI (A498 renal) was greater than 100 µM, the TGI (OVCAR-5 ovarian) was greater than 100 µM and the TGI (MDA-MB-435) was greater than 100 µM. For the same molecule, the TGI (HOP-92 NSCLC) was greater than 100 µM, the TGI (A549 NSCLC) was greater than 100 µM and the TGI (COLO 205 colon) was greater than 100 µM. It also gave a TGI (MALME-3M melanoma) greater than 100 µM and a TGI (SK-MEL-28 melanoma) greater than 100 µM.
For `O=C(Nc1ccc(-n2cc(-c3ccncc3)c(-c3ccc(O)c(Cl)c3)n2)cc1)c1cc(Cl)cc(Cl)c1`, the GI50 (A498 renal) was greater than 32.5 µM, the TGI (A498 renal) was greater than 32.5 µM and the GI50 (OVCAR-5 ovarian) was greater than 32.5 µM. It also gave a TGI (OVCAR-5 ovarian) greater than 32.5 µM, a GI50 (MDA-MB-435) of 1.87 µM and a TGI (MDA-MB-435) greater than 32.5 µM. For the same molecule, the GI50 (HOP-92 NSCLC) was 1.28 µM, the TGI (HOP-92 NSCLC) was greater than 32.5 µM and the GI50 (A549 NSCLC) was 2.86 µM. For the same molecule, the TGI (A549 NSCLC) was greater than 32.5 µM, the GI50 (COLO 205 colon) was greater than 32.5 µM and the TGI (COLO 205 colon) was greater than 32.5 µM. For the same molecule, the GI50 (HCC-2998 colon) was 11.8 µM, the TGI (HCC-2998 colon) was greater than 32.5 µM and the GI50 (MALME-3M melanoma) was 2.66 µM. The TGI (MALME-3M melanoma) was greater than 32.5 µM, the GI50 (SK-MEL-28 melanoma) was 3.19 µM and the TGI (SK-MEL-28 melanoma) was greater than 32.5 µM.
`O=C(O)CCC(C(=O)O)N1C(=O)c2ccccc2C1=O` (stereo unspecified) was tested, and the TGI (A498 renal) was greater than 100 µM, the TGI (OVCAR-5 ovarian) was greater than 100 µM and the TGI (MDA-MB-435) was greater than 100 µM. For the same molecule, the TGI (HOP-92 NSCLC) was greater than 100 µM, the TGI (A549 NSCLC) was greater than 100 µM and the TGI (COLO 205 colon) was greater than 100 µM. For the same molecule, the TGI (HCC-2998 colon) was greater than 100 µM, the TGI (MALME-3M melanoma) was greater than 100 µM and the TGI (SK-MEL-28 melanoma) was greater than 100 µM.
`CCOC(O)C(F)(F)F` (stereo unspecified) showed a TGI (MDA-MB-435) greater than 100 µM, a TGI (HOP-92 NSCLC) greater than 100 µM and a TGI (A549 NSCLC) greater than 100 µM. It also gave a TGI (COLO 205 colon) greater than 100 µM, a TGI (HCC-2998 colon) greater than 100 µM and a TGI (SK-MEL-28 melanoma) greater than 100 µM.
In the case of `COc1cc(C(=O)O[C@H](C(=O)NCCNC(=O)[C@@H](OC(=O)c2cc(OC)cc3c(C)cccc23)[C@]2(C)CO2)[C@]2(C)CO2)c2cccc(C)c2c1`, the GI50 (A498 renal) was 2.21 µM, the TGI (A498 renal) was 4.35 µM and the GI50 (OVCAR-5 ovarian) was 0.381 µM. For the same molecule, the TGI (OVCAR-5 ovarian) was 2.08 µM, the TGI (MDA-MB-435) was 0.696 µM and the GI50 (HOP-92 NSCLC) was 0.101 µM. For the same molecule, the TGI (HOP-92 NSCLC) was 0.404 µM, the GI50 (A549 NSCLC) was less than 0.0428 µM and the TGI (A549 NSCLC) was 1.25 µM. The GI50 (COLO 205 colon) was 0.149 µM, the GI50 (HCC-2998 colon) was 0.0953 µM and the TGI (HCC-2998 colon) was 2.49 µM. For the same molecule, the GI50 (SK-MEL-28 melanoma) was 0.0524 µM.
`O=C(Nc1ccc(Cl)cc1)c1cccc([N+](=O)[O-])c1O` showed a TGI (A498 renal) of 7.32 µM, a TGI (OVCAR-5 ovarian) greater than 100 µM and a TGI (M19-MEL melanoma) of 9.07 µM. For the same molecule, the TGI (HOP-92 NSCLC) was 4.72 µM, the TGI (DLD-1 colon) was greater than 100 µM and the TGI (A549 NSCLC) was greater than 100 µM. The TGI (COLO 205 colon) was 10.5 µM, the TGI (HCC-2998 colon) was 14.4 µM and the TGI (MALME-3M melanoma) was 9.97 µM. For the same molecule, the TGI (SK-MEL-28 melanoma) was 39.6 µM.
